Experimental data reported in ChEMBL document CHEMBL5576150, “Synthesis and Biological Evaluation of Pyrazole-Pyrimidones as a New Class of Correctors of the Cystic Fibrosis Transmembrane Conductance Regulator (CFTR)” (J Med Chem, 2024).
Activity calls are given as the source filed them. No cut-off for these calls is given here.

Assays:
[1] = test system: Cystic fibrosis transmembrane conductance regulator (Homo sapiens), P13569 [F508del]; experiment: Corrector activity at 3xHA-tagged full-length human CFTR F508del mutant expressed in human CFBE41o- cells assessed as functional rescue of channel by measuring anion transport measured after 24 hrs in presence of VX-809/N-(5-(4-fluorobenzyl)thiazol-2-yl)-2,5-dimethylfuran-3-carboxamide by halide-sensitive YFP quenching assay relative to combination of VX-809/N-(5-(4-fluorobenzyl)thiazol-2-yl)-2,5-dimethylfuran-3-carboxamide; type: cell-based; conditions: filed as activator
[2] = test system: Cystic fibrosis transmembrane conductance regulator (Homo sapiens), P13569 [F508del]; experiment: Corrector activity at 3xHA-tagged full-length human CFTR F508del mutant expressed in human CFBE41o- cells assessed as restoration of plasma membrane density of channel in presence of N-(5-(4-fluorobenzyl)thiazol-2-yl)-2,5-dimethylfuran-3-carboxamide incubated for 24 hrs by ELISA; type: cell membranes; conditions: filed as activator
[3] = test system: Cystic fibrosis transmembrane conductance regulator (Homo sapiens), P13569 [S13F]; experiment: Corrector activity at 3xHA-tagged full-length human CFTR S13F mutant expressed in human CFBE41o- cells assessed as restoration of plasma membrane density of channel in presence of VX-809/N-(5-(4-fluorobenzyl)thiazol-2-yl)-2,5-dimethylfuran-3-carboxamide by ELISA; type: cell membranes; conditions: filed as activator
[4] = test system: Cystic fibrosis transmembrane conductance regulator (Homo sapiens), P13569 [S13F]; experiment: Corrector activity at 3xHA-tagged full-length human CFTR S13F mutant expressed in human CFBE41o- cells assessed as restoration of plasma membrane density of channel in presence of N-(5-(4-fluorobenzyl)thiazol-2-yl)-2,5-dimethylfuran-3-carboxamide incubated for 24 hrs by ELISA; type: cell membranes; conditions: filed as activator
[5] = test system: Cystic fibrosis transmembrane conductance regulator (Homo sapiens), P13569 [F508del]; experiment: Corrector activity at CFTR F508del mutant in patient-derived human HBE cells assessed as forskolin/VX-770-induced transepithelial short-circuit current in presence of VX-809/N-(5-(4-fluorobenzyl)thiazol-2-yl)-2,5-dimethylfuran-3-carboxamide by electrophysiological method (reference value: 16 %); type: cell-based; conditions: filed as activator
[6] = test system: Cystic fibrosis transmembrane conductance regulator (Homo sapiens), P13569 [S492F]; experiment: Corrector activity at 3xHA-tagged full-length human CFTR S492F mutant expressed in human CFBE41o- cells assessed as restoration of plasma membrane density of channel at 10 uM incubated for 24 hrs in presence of VX-661/VX-445 by ELISA; type: cell membranes; conditions: filed as activator
[7] = test system: Cystic fibrosis transmembrane conductance regulator (Homo sapiens), P13569 [F508del]; experiment: Corrector activity at 3xHA-tagged full-length human CFTR F508del mutant expressed in human CFBE41o- cells assessed as restoration of plasma membrane density of channel incubated for 24 hrs in presence of VX-445 by ELISA; type: cell membranes
[8] = test system: Cystic fibrosis transmembrane conductance regulator (Homo sapiens), P13569 [F508del]; experiment: (§1) Corrector activity at 3xHA-tagged full-length human CFTR F508del mutant expressed in human CFBE41o- cells assessed as restoration of plasma membrane density of channel incubated for 24 hrs in presence of VX-809/N-(5-(4-fluorobenzyl)thiazol-2-yl)-2,5-dimethylfuran-3-carboxamide by ELISA; type: cell membranes; conditions: filed as activator, dose 10.0 µM
[9] = target: Cystic fibrosis transmembrane conductance regulator (Homo sapiens, UniProt P13569, F508DEL); experiment: as §1; type: cell membranes
[10] = test system: Cystic fibrosis transmembrane conductance regulator (Homo sapiens), P13569 [S13F]; experiment: Corrector activity at 3xHA-tagged full-length human CFTR S13F mutant expressed in human CFBE41o- cells assessed as restoration of plasma membrane density of channel at 10 uM incubated for 24 hrs in presence of VX-445 by ELISA; type: cell membranes
[11] = test system: Cystic fibrosis transmembrane conductance regulator (Homo sapiens), P13569 [F508del]; experiment: Corrector activity at 3xHA-tagged full-length human CFTR F508del mutant expressed in human CFBE41o- cells assessed as restoration of plasma membrane density of channel at 10 uM incubated for 24 hrs in presence of VX-661/VX-445 by ELISA; type: cell membranes; conditions: filed as activator
[12] = test system: Cystic fibrosis transmembrane conductance regulator (Homo sapiens), P13569 [S492F]; experiment: Corrector activity at 3xHA-tagged full-length human CFTR S492F mutant expressed in human CFBE41o- cells assessed as restoration of plasma membrane density of channel in presence of VX-809/N-(5-(4-fluorobenzyl)thiazol-2-yl)-2,5-dimethylfuran-3-carboxamide by ELISA; type: cell membranes; conditions: filed as activator
[13] = test system: Cystic fibrosis transmembrane conductance regulator (Homo sapiens), P13569 [R560T]; experiment: Corrector activity at 3xHA-tagged full-length human CFTR R560T mutant expressed in human CFBE41o- cells assessed as restoration of plasma membrane density of channel in presence of VX-809/N-(5-(4-fluorobenzyl)thiazol-2-yl)-2,5-dimethylfuran-3-carboxamide by ELISA; type: cell membranes
[14] = test system: Cystic fibrosis transmembrane conductance regulator (Homo sapiens), P13569 [F508del]; experiment: Corrector activity at 3xHA-tagged full-length human CFTR F508del mutant expressed in human CFBE41o- cells assessed as restoration of plasma membrane density of channel incubated for 24 hrs in presence of VX-809 by ELISA; type: cell membranes; conditions: filed as activator
[15] = test system: Cystic fibrosis transmembrane conductance regulator (Homo sapiens), P13569 [S13F]; experiment: Corrector activity at 3xHA-tagged full-length human CFTR S13F mutant expressed in human CFBE41o- cells assessed as restoration of plasma membrane density of channel in presence of VX-809 incubated for 24 hrs by ELISA; type: cell membranes; conditions: filed as activator
[16] = test system: Cystic fibrosis transmembrane conductance regulator (Homo sapiens), P13569 [N1303K]; experiment: Corrector activity at 3xHA-tagged full-length human CFTR N1303K mutant expressed in human CFBE41o- cells assessed as restoration of plasma membrane density of channel in presence of VX-809/N-(5-(4-fluorobenzyl)thiazol-2-yl)-2,5-dimethylfuran-3-carboxamide by ELISA relative to wild-type CFTR level; type: cell membranes; conditions: filed as activator
[17] = test system: Cystic fibrosis transmembrane conductance regulator (Homo sapiens), P13569 [S492F]; experiment: Corrector activity at 3xHA-tagged full-length human CFTR S492F mutant expressed in human CFBE41o- cells assessed as restoration of plasma membrane density of channel in presence of N-(5-(4-fluorobenzyl)thiazol-2-yl)-2,5-dimethylfuran-3-carboxamide incubated for 24 hrs by ELISA; type: cell membranes; conditions: filed as activator
[18] = test system: Cystic fibrosis transmembrane conductance regulator (Homo sapiens), P13569 [S13F]; experiment: Corrector activity at 3xHA-tagged full-length human CFTR S13F mutant expressed in human CFBE41o- cells assessed as restoration of plasma membrane density of channel incubated for 24 hrs in presence of VX-445 by ELISA; type: cell membranes
[19] = test system: Cystic fibrosis transmembrane conductance regulator (Homo sapiens), P13569 [S492F]; experiment: Corrector activity at 3xHA-tagged full-length human CFTR S492F mutant expressed in human CFBE41o- cells assessed as restoration of plasma membrane density of channel in presence of VX-661 incubated for 24 hrs by ELISA; type: cell membranes; conditions: filed as activator
[20] = test system: Cystic fibrosis transmembrane conductance regulator (Homo sapiens), P13569 [F508del]; experiment: Corrector activity at 3xHA-tagged full-length human CFTR F508del mutant expressed in human CFBE41o- cells assessed as restoration of plasma membrane density of channel incubated for 24 hrs in presence of VX-661 by ELISA; type: cell membranes; conditions: filed as activator
[21] = test system: Cystic fibrosis transmembrane conductance regulator (Homo sapiens), P13569 [S13F]; experiment: Corrector activity at 3xHA-tagged full-length human CFTR S13F mutant expressed in human CFBE41o- cells assessed as restoration of plasma membrane density of channel in presence of VX-661 incubated for 24 hrs by ELISA; type: cell membranes; conditions: filed as activator
[22] = test system: Cystic fibrosis transmembrane conductance regulator (Homo sapiens), P13569 [S492F]; experiment: Corrector activity at 3xHA-tagged full-length human CFTR S492F mutant expressed in human CFBE41o- cells assessed as restoration of plasma membrane density of channel in presence of VX-809 incubated for 24 hrs by ELISA; type: cell membranes; conditions: filed as activator
[23] = test system: Cystic fibrosis transmembrane conductance regulator (Homo sapiens), P13569 [F508del]; experiment: Inhibition of activity of 3xHA-tagged full-length human CFTR F508del mutant expressed in human CFBE41o- cells in presence of VX-809/N-(5-(4-fluorobenzyl)thiazol-2-yl)-2,5-dimethylfuran-3-carboxamide; type: cell-based
[24] = test system: Cystic fibrosis transmembrane conductance regulator (Homo sapiens), P13569 [F508del]; experiment: Corrector activity at 3xHA-tagged full-length human CFTR F508del mutant expressed in human CFBE41o- cells assessed as rescue of forskolin/VX-770-induced transepithelial short-circuit current measured after 24 hrs in presence of VX-809/N-(5-(4-fluorobenzyl)thiazol-2-yl)-2,5-dimethylfuran-3-carboxamide by electrophysiological method relative to wild-type CFTR activity; type: cell-based; conditions: filed as activator
[25] = test system: Cystic fibrosis transmembrane conductance regulator (Homo sapiens), P13569 [M1101K]; experiment: Corrector activity at 3xHA-tagged full-length human CFTR M1101K mutant expressed in human CFBE41o- cells assessed as restoration of plasma membrane density of channel in presence of VX-809/N-(5-(4-fluorobenzyl)thiazol-2-yl)-2,5-dimethylfuran-3-carboxamide by ELISA relative to wild-type CFTR level; type: cell membranes; conditions: filed as activator
[26] = test system: Cystic fibrosis transmembrane conductance regulator (Homo sapiens), P13569 [S492F]; experiment: Corrector activity at 3xHA-tagged full-length human CFTR S492F mutant expressed in human CFBE41o- cells assessed as rescue of forskolin/VX-770-induced transepithelial short-circuit current at 10 uM measured after 24 hrs in presence of VX-809/N-(5-(4-fluorobenzyl)thiazol-2-yl)-2,5-dimethylfuran-3-carboxamide by electrophysiological method; type: cell-based; conditions: filed as activator
[27] = test system: Cystic fibrosis transmembrane conductance regulator (Homo sapiens), P13569 [S492F]; experiment: Corrector activity at 3xHA-tagged full-length human CFTR S492F mutant expressed in human CFBE41o- cells assessed as restoration of plasma membrane density of channel incubated for 24 hrs in presence of VX-445 by ELISA; type: cell membranes
[28] = test system: Cystic fibrosis transmembrane conductance regulator (Homo sapiens), P13569 [F508del]; experiment: Corrector activity at 3xHA-tagged full-length human CFTR F508del mutant expressed in human CFBE41o- cells assessed as […] forskolin/VX-770-induced transepithelial short-circuit current at 10 uM in presence of VX-809/N-(5-(4-fluorobenzyl)thiazol-2-yl)-2,5-dimethylfuran-3-carboxamide by electrophysiological method relative to control; type: cell-based; set-up: scale not given: the % may be the effect or the level left; conditions: filed as activator
[29] = test system: Cystic fibrosis transmembrane conductance regulator (Homo sapiens), P13569 [F508del]; experiment: Corrector activity at 3xHA-tagged full-length human CFTR F508del mutant expressed in human CFBE41o- cells assessed as fractional plasma membrane density at 10 uM in presence of VX-809/N-(5-(4-fluorobenzyl)thiazol-2-yl)-2,5-dimethylfuran-3-carboxamide relative to forskoli-stimulated wild-type CFTR expressed in human CFBE41o- cells; type: cell membranes; conditions: filed as activator
[30] = test system: Cystic fibrosis transmembrane conductance regulator (Homo sapiens), P13569 [F508del]; experiment: Corrector activity at 3xHA-tagged full-length human CFTR F508del mutant expressed in human CFBE41o- cells assessed as restoration of plasma membrane density of channel at 10 uM incubated for 24 hrs in presence of VX-809/N-(5-(4-fluorobenzyl)thiazol-2-yl)-2,5-dimethylfuran-3-carboxamide by ELISA relative to wild-type CFTR level; type: cell membranes; conditions: filed as activator

Chain of Cystic fibrosis transmembrane conductance regulator (Homo sapiens), P13569 [F508del] (P13569 as listed by the source): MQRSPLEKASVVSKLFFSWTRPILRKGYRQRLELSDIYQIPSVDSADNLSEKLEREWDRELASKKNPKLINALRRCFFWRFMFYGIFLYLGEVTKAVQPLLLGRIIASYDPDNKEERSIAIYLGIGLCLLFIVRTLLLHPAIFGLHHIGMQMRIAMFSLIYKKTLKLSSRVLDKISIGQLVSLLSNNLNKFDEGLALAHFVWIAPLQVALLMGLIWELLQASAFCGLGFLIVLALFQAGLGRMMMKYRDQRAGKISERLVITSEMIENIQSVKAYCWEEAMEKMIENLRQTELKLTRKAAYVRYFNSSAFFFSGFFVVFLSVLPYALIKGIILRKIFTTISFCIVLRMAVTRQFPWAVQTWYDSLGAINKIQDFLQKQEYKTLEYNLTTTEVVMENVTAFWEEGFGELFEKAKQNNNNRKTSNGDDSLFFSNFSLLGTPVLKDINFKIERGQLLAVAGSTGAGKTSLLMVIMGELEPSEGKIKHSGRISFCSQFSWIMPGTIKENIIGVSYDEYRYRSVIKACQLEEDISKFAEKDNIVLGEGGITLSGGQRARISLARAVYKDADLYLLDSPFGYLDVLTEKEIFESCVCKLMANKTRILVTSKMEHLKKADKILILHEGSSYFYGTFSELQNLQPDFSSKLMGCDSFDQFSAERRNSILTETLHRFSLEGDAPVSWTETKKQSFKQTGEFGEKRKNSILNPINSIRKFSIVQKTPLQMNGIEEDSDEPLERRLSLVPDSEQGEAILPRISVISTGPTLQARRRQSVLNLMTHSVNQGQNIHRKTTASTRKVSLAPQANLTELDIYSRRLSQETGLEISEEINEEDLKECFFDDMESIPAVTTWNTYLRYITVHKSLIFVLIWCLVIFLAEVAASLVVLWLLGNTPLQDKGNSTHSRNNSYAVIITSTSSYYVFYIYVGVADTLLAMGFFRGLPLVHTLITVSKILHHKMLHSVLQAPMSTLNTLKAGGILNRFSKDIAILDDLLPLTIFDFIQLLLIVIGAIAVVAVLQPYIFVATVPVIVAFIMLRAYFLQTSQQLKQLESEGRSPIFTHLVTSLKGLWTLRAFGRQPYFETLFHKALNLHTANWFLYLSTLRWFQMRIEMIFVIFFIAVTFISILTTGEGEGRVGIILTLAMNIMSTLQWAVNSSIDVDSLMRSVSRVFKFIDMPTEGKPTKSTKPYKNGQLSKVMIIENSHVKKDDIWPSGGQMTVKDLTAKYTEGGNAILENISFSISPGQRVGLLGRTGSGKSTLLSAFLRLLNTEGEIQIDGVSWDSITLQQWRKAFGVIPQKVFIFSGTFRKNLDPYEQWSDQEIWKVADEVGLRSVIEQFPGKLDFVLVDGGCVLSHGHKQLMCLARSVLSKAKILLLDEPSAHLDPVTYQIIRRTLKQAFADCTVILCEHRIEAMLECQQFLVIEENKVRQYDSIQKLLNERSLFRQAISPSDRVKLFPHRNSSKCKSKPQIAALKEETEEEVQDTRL
Chain of Cystic fibrosis transmembrane conductance regulator (Homo sapiens), P13569 [S13F] (P13569 whole entry S13F): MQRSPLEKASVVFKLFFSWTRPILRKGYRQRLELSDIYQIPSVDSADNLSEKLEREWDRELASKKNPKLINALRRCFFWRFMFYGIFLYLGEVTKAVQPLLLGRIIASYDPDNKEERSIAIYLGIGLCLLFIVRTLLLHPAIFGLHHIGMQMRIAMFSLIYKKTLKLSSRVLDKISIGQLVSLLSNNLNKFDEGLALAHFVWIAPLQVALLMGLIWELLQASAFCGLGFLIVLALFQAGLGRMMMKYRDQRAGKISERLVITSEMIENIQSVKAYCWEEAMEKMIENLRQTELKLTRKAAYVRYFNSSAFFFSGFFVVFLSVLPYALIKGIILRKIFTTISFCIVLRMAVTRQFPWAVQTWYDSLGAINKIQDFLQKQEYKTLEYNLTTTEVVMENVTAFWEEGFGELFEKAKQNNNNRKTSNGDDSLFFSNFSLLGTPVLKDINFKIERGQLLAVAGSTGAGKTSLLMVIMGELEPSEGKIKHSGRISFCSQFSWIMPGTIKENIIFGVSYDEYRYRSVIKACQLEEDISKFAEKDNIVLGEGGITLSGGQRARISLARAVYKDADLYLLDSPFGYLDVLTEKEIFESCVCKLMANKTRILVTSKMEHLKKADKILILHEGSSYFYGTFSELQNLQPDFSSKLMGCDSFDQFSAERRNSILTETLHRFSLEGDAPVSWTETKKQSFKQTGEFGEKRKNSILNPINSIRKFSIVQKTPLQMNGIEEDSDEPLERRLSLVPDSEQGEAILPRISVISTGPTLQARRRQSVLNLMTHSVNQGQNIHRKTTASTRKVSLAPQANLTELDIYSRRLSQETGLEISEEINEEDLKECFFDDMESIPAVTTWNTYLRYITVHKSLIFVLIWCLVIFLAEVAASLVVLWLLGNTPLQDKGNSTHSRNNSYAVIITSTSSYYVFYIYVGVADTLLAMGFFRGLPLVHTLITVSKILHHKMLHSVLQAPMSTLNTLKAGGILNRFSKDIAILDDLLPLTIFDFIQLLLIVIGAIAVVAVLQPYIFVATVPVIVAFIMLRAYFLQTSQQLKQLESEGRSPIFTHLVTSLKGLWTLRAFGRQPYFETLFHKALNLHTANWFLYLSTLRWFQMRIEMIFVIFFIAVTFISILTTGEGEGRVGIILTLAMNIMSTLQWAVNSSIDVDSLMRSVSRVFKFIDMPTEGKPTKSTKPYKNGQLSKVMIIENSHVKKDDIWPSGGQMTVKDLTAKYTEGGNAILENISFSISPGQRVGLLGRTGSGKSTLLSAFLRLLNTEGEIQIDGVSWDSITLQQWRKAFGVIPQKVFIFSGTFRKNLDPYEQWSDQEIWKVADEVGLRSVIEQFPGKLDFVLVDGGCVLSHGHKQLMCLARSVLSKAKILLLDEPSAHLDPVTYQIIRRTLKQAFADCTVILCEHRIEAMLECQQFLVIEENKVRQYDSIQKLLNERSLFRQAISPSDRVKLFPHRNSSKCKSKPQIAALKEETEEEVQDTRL
Chain of Cystic fibrosis transmembrane conductance regulator (Homo sapiens), P13569 [S492F] (P13569 whole entry S492F): as the sequence (P13569 whole entry S13F) above, with F13S, S492F counted along it
Chain of Cystic fibrosis transmembrane conductance regulator (Homo sapiens), P13569 [R560T] (P13569 whole entry R560T): as the sequence (P13569 whole entry S13F) above, with F13S, R560T counted along it
Chain of Cystic fibrosis transmembrane conductance regulator (Homo sapiens), P13569 [M1101K] (P13569 whole entry M1101K): as the sequence (P13569 whole entry S13F) above, with F13S, M1101K counted along it
Chain of Cystic fibrosis transmembrane conductance regulator (P13569 as listed by the source): as the sequence (P13569 as listed by the source) above
Chain of Cystic fibrosis transmembrane conductance regulator (Homo sapiens), P13569 [N1303K] (P13569 whole entry N1303K): as the sequence (P13569 whole entry S13F) above, with F13S, N1303K counted along it

CC(C)(Oc1ccc(Cl)cc1)C(=O)Nc1cc(-c2cccs2)nn1-c1nc2c(c(=O)[nH]1)CCCC2
Activity [1]: 250%
Activity [2]: Active
Activity [3]: Active
Activity [4]: Active
Activity [5]: 50%
Activity [6]: Active
Activity [7]: inactive
Activity [8]: Dose-Dependent Effect
EC50 [9]: 6.16 µM
Activity [10]: inactive
Activity [11]: Active
Activity [12]: Active
Activity [13]: inactive
Activity [14]: Active
Activity [15]: Active
Activity [16]: 15%
Activity [17]: Active
Activity [18]: inactive
Activity [19]: Active
Activity [20]: Active
Activity [21]: Active
Activity [22]: Active
inhibition [23]: inactive
Activity [24]: 80%
Activity [25]: 15%
Activity [26]: Active
Activity [27]: inactive

O=C(Nc1cc(-c2cccs2)nn1-c1nc2c(c(=O)[nH]1)CCCC2)C1(c2ccc(Cl)cc2)CCCC1
Activity [1]: 250%
Activity [2]: Active
Activity [3]: Active
Activity [4]: Active
Activity [28]: -14%
Activity [5]: 50%
Activity [6]: Active
Activity [7]: inactive
Activity [8]: Dose-Dependent Effect
EC50 [9]: 3.05 µM
Activity [10]: inactive
Activity [11]: Active
Activity [12]: Active
Activity [13]: inactive
Activity [14]: Active
Activity [29]: 84%
Activity [15]: Active
Activity [16]: 15%
Activity [17]: Active
Activity [18]: inactive
Activity [19]: Active
Activity [20]: Active
Activity [21]: Active
Activity [22]: Active
Activity [24]: 80%
Activity [25]: 15%
Activity [26]: Active
Activity [27]: inactive

Cc1nc(-n2nc(-c3ccccc3)cc2NC(=O)C2(c3ccc(Cl)cc3)CCCC2)[nH]c(=O)c1C
Activity [30]: 102%
